# Legend:
# bacterial sludge = test: Bacterial sludge contact test; conditions: 28 days, ambient conditions
# Protocol: (§1) The environmental stability of C6 F13 CF(CF3)COO^- NH4^+ was investigated under ambient conditions using a bacterial sludge contact test. In this test, bacterial sludge was obtained from the municipal waste treatment plant at Pig's Eye, Minn., the sludge was centrifuged to collect the water-insoluble high density solids, and was reconstituted in water to a standard level of about 2000 ppm of total suspended solids. A 5 mL aliquot of the 2000 ppm sludge in water was placed in each of several 20 mL vials, and enough of the carboxylate salt was added to each vial to achieve a concentration of about 496 ppm (1 millimolar). Each vial was tightly capped with a septum cap and was allowed to stand at room temperature. At intervals, the concentrations of perfluoroolefin and perfluoromonohydride gases in each headspace were measured by removing a gas sample from the space over the liquid, using a Hewlitt Packard Gas Chromatograph with a headspace sampling accessory. The peak areas determined from each gas sample were compared to a standard series made by placing increasing concentrations of a defined mixture of perfluoroolefin and perfluoromonohydride in water in the same types of vials, and subjecting the headspaces in the vials to the same analytical procedure. Results, given below, state the complete conversion relative to theoretical percent of the amount of perfluoroolefin/perfluoromonohydride mixture formed relative to that expected from complete conversion of the salt to volatile fluorocarbons. A control experiment using water with no sludge was also run at the 28 day test point.
# [1] = Bacterial sludge contact test
# Protocol: as §1
# [2] = Thermogravimetric analysis of neat perfluorocarboxylate salts; assay type: physicochemical; conditions: neat salt, nitrogen, 10° C./min
# Text: Thermal degradation measurements were made on a series of neat perfluorocarboxylate salts, including several α-branched open chain structures (Examples N2-N9), a primarily linear open chain structure (Example N10-Fluorad™ FC-143 Fluorochemical Surfactant, commercially available from 3M Company, St. Paul, Minn.), and a closed chain (i.e., cyclic) structure (Example N11--made by the electrochemical fluorination of benzoic acid and hydrolysis in the presence of KOH, as described in U.S. Pat. No. 2,567,011 (Diesslin et al.)).
# The perfluorocarboxylate salts were tested using a Perkin-Elmer TGA 7 thermogravimetric analysis apparatus and a salt sample size of approximately 5 mg, a heating rate of 10° C./min, and a nitrogen gas flow rate of 40-45 mL/min. Using the TGA 7 software, the following temperatures were recorded: (1) the onset temperature of decomposition, (2) the temperature at which 50% of the sample weight was lost, and (3) the temperature at which 90% of the sample weight was lost.
smiles,measurement,setting,value
"O=C(O)C(F)(C(F)(F)F)C(F)(F)C(F)(F)C(F)(F)C(F)(F)C(F)(F)C(F)(F)F (stereo not shown) [Example M16, C6 F13 CF(CF3)COO^- H4 N^+]",effect of sludge on amount of perfluoroolefin/perfluoromonohydride,bacterial sludge,more than doubled
same,"percent perfluoroolefin/perfluoromonohydride formed at 672 h, 1000 µM","[1]; Day 28, no sludge",32%
same,"percent perfluoroolefin/perfluoromonohydride formed at 24 h, 1000 µM","[1]; bacterial sludge, Day 1, with sludge",4%
same,"percent perfluoroolefin/perfluoromonohydride formed at 96 h, 1000 µM","[1]; bacterial sludge, Day 4, with sludge",13%
same,"percent perfluoroolefin/perfluoromonohydride formed at 168 h, 1000 µM","[1]; bacterial sludge, Day 7, with sludge",23%
same,"percent perfluoroolefin/perfluoromonohydride formed at 336 h, 1000 µM","[1]; bacterial sludge, Day 14, with sludge",44%
same,"percent perfluoroolefin/perfluoromonohydride formed at 672 h, 1000 µM","[1]; bacterial sludge, Day 28, with sludge",70%
same,Temperature for: 50% loss,[2],179 °C
same,Temperature for: 90% loss,[2],193 °C
same,Temperature for: Onset,[2],165 °C

# From patent publication US5998521A, “Aqueous fluoropolymer compositions and method of preparing the same” (3M Innovative Properties Company, priority 1996, dated 1999)
